Measured values reported in patent US20260055112A1, “CRYSTALLINE FORM OF PYRAZOLOPYRIMIDINE ESTER COMPOUND AND METHODS OF PREPARING THE SAME” (Shanghai Maius Pharmaceutical Co. Ltd., priority 2022, published 2026).
“Also recorded” adds a separate entry of the source.

Tests used:
[1] = Stability study: change in purity after 10 days storage under forced degradation conditions; format: physicochemical; conditions: for Purity, 25° C. + 92.5% RH (Day 10): stored at 25° C. and 92.5% RH for 10 days; for Purity (Day 10): stored for 10 days
Experimental: Samples of the amorphous and crystalline (Form I) compound of formula (I) were stored under different conditions: at 40° C. for 10 days; […]; at 25° C. and 92.5% RH (relative humidity) for 10 days; at 60° C. and 75% RH for 10 days; in light for 10 days; and at room temperature for 10 days.

[2] = among the pyrazolopyrimidine ester prodrugs of CN 202111131059.0; cited from earlier work

**Q.** With C=CC(=O)N1CCC[C@@H](n2nc(-c3ccc(Oc4ccccc4)cc3)c3c(NC(=O)OCCCC)ncnc32)C1 [Amorphous, 1-[(3R)-3-[4-(butoxycarbonyl)-amino-3-(4-phenoxyphenyl)-1H-pyrazolo[3,4-d]pyrimidin-1-yl]-1-piperidinyl]-2-propen-1-one] as the compound, how does the “Stability in general (in words)” value ([1]; amorphous product, heat and moisture) read?
**A.** poor stability

**Q.** And the “Degradation observed (in words)” value ([1]; storage 10 days at 40° C.)?
**A.** Significant degradation

**Q.** And the “Degradation observed (in words)” value ([1]; storage 10 days at 40° C., listed as amorphous sample)?
**A.** Noticeable degradation

**Q.** What about the “Degradation observed (in words)” value ([1]; storage 10 days at 60° C. and 75% RH) of the same compound?
**A.** almost complete degradation

**Q.** What about the “Purity, 25° C. + 92.5% RH (Day 10)” value [1] of the same compound?
**A.** 98.00%

**Q.** What about the “Purity (Day 10)” value [1] of the same compound?
**A.** 0%

**Q.** Which “Stability (in words)” value ([1]; 10 days of storage at room temperature and in light) does the source give for C=CC(=O)N1CCC[C@@H](n2nc(-c3ccc(Oc4ccccc4)cc3)c3c(NC(=O)OCCCC)ncnc32)C1 [Form I, 1-[(3R)-3-[4-(butoxycarbonyl)-amino-3-(4-phenoxyphenyl)-1H-pyrazolo[3,4-d]pyrimidin-1-yl]-1-piperidinyl]-2-propen-1-one] here?
**A.** highly stable; also recorded: very stable

**Q.** What about the “Degree of degradation compared with the amorphous form” value ([1]; several forced degradation conditions) of the same compound?
**A.** lower degrees of degradation than the amorphous compound; also recorded: lower degree of degradation than the amorphous form

**Q.** And the “Purity, 25° C. + 92.5% RH (Day 10)” value [1]?
**A.** 98.63%

**Q.** And the “Purity (Day 10)” value [1]?
**A.** 2.19%

**Q.** Which “Rate of hydrolysis in blood” value [2] does the source give for C=CC(=O)N1CCC[C@@H](n2nc(-c3ccc(Oc4ccccc4)cc3)c3c(NC(=O)OCCCC)ncnc32)C1 [formula (I), 1-[(3R)-3-[4-(butoxycarbonyl)-amino-3-(4-phenoxyphenyl)-1H-pyrazolo[3,4-d]pyrimidin-1-yl]-1-piperidinyl]-2-propen-1-one] here?
**A.** hydrolyzed most rapidly
